# What was measured:
# PSA mRNA = assay: Androgen-induced PSA mRNA levels in LNCaP cells (qRT-PCR); format: cell-based, human; conditions: R1881 1 nM, 16 hours; for inhibition of androgen-induced levels of PSA mRNA: 10 μg/ml, 1 hour pretreatment
# Protocol: Levels of PSA mRNA were measured by quantitative real-time (qRT)-PCR and normalized to levels of GAPDH mRNA (housekeeping gene). White bar: no R1881. Black bars: R1881 (1 nM). MNE: mean normalized expression. DMSO (no R1881) was arbitrarily set at 1.0 for each individual experiment. Bars represent the mean±SE from 3 separate experiments using triplicate technical samples from each experiment.
# PSA is an androgen-regulated gene containing several well-characterized androgen response elements (AREs) in the enhancer and promoter regions. Levels of PSA mRNA are induced by androgen by a mechanism dependent androgen receptor. To test if sintokamides would also block endogenous gene expression induced by androgen, levels of PSA mRNA were measured in response to the synthetic androgen R1881.
# androgen receptor (AR) = target: T1, androgen receptor (AR) (Homo sapiens, UniProt P10275, T878A); assay: PSA (6.1 kb)-luciferase reporter assay in LNCaP cells; format: cell-based; conditions: R1881 1 nM, 24 hours; for inhibition of R1881 induction of PSA (6.1)-luciferase: 1 hour pretreatment
# T1 construct: endogenous in cells; host or cells: LNCaP human prostate cancer cells
# T1 sequence (P10275 1-920 T878A): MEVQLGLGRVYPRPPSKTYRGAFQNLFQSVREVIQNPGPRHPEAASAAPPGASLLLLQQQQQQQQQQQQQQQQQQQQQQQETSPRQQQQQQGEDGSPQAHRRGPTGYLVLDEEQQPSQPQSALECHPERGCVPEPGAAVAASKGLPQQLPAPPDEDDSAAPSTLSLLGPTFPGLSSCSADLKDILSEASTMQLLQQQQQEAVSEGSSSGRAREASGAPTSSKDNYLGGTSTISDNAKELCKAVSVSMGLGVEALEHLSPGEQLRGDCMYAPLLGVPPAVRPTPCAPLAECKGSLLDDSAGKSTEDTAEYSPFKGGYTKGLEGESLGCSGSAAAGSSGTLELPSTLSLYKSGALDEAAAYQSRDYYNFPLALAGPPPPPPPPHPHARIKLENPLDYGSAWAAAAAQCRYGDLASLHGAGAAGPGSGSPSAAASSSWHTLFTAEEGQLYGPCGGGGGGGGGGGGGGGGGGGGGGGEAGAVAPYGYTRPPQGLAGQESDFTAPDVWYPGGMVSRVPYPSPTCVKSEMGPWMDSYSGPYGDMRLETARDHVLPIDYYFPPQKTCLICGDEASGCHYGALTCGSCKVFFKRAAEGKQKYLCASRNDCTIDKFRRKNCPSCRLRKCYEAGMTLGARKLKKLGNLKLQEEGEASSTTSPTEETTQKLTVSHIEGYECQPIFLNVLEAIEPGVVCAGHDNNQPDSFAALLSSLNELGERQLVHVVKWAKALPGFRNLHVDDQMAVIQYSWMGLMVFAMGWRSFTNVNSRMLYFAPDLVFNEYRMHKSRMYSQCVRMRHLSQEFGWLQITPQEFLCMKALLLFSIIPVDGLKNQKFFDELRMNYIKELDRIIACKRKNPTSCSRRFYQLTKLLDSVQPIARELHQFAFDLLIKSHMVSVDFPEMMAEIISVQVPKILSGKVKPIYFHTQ
# Protocol: White bars represent no steroid (ethanol control). Wherein glucocorticoid receptor (GR) and progesterone receptor (PR).
# The cells were harvested 24 hours later and analyzed for luciferase activity. The data is normalized to protein that was measured using Bradford assay.
# Sequence similarities of amino acids in the AR with related human steroid receptors (glucocorticoid receptor (GR) and progesterone receptor (PR)) are significant in some domains such as the DNA-binding-domain (DBD). Although the AR-NTD shares less than 15% homology with the PR and GR, these receptors do interact with some of the same proteins such as SRC-1 (steroid receptor coactivator-1). […] Cells were co-transfected with expression plasmids for full-length hGR and PRβ and the relative reporter (i.e., pGR-Luc or PRE-E1b-Luc reporters). Cells were then treated with ethanol vehicle, dexamethasone (GR), 4-pregnene-3,20 dione (progesterone) (PR) followed by measurement of luciferase activity.
# Activation of the endogenous AR was measured in LNCaP human prostate cancer cells by measuring an androgen-responsive reporter containing androgen response elements (AREs). The PSA (6.1 kb)-luciferase reporter gene construct contains several well-characterized AREs and is induced by androgen.
# LNCaP cells = assay: Androgen-dependent proliferation of LNCaP cells (BrdU incorporation); format: cell-based, human; conditions: R1881 0.1 nM, 3 days
# Protocol: BrdU incorporation was measured 3 days later to indicate changes in proliferation in response to androgen (see FIG. 3B).
Compound,inhibition of androgen-induced levels of PSA mRNA (PSA mRNA),inhibition of R1881 induction of PSA (6.1)-luciferase (androgen receptor (AR); 5 μg/ml),further results
Dysamide A [CB3.0],inhibit,some activity,"inhibition of R1881 induction of PSA (6.1)-luciferase (androgen receptor (AR); 5 μg/ml, listed as Dysimide A): inhibition"
"CCC(=O)N[C@H](C[C@H](C)C(Cl)(Cl)Cl)C(=O)N1C(=O)C=C(OC)[C@@H]1C[C@H](C)C(Cl)(Cl)Cl [CB4.0, Sintokamide B]",inhibit,inhibition,
"CCC(=O)N[C@H](C[C@H](C)C(Cl)Cl)C(=O)N1C(=O)C=C(OC)[C@@H]1C[C@H](C)C(Cl)Cl [CB1.1, Sintokamide C]",,inhibition,
"C[C@]1(O)CC[C@H]2[C@@H]3CCC4=CC(=O)CCC4=C3C=C[C@@]21C [Sintokamide R1881, R1881, reference compound]",,,induction of levels of PSA mRNA (PSA mRNA): at least 3 fold; proliferation over control (BrdU incorporation) (LNCaP cells): increased proliferation over control; induction of PSA-luciferase activity (androgen receptor (AR)): approximately 6 fold
"CCC(=O)N[C@H](C[C@H](C)C(Cl)(Cl)Cl)C(=O)N1C(=O)C=C(OC)[C@@H]1CC(C)C [CB2.1, Sintokamide E]",,inhibition,
"CCC(=O)N[C@H](CC(C)C)C(=O)N1C(=O)C=C(OC)[C@@H]1CC(C)C [non-chlorinated sintokamide, N—((R)-1-((S)-2-isobutyl-3-methoxy-5-oxo-2,5-dihydro-1H-pyrrol-1-yl)-4-methyl-1-oxopentan-2-yl)propionamide]",,,inhibition of R1881 induction of PSA (6.1)-luciferase (androgen receptor (AR); 10 μM): some activity
